Experimental data from patent US20220249528A1 (CELGENE CORPORATION, priority 2019, published 2022).
Peptide text beside a SMILES is read from it. * marks the point of attachment. Cbz = O=C(OCc1ccccc1)*; CH2F = FC*

Key:
MCL-1 in MV4-11 cells = test: Western blot of MCL-1 degradation; assay type: cell-based; settings: 20 μM Z-VAD-FMK 1 hour before 5-azacytidine for 16 hours, FIG. 13B
Method: Lysates were quantified using a bicinchoninic acid (BCA) kit (Piece/Thermo Fisher, Waltham, Mass.). 20 to 30 μg protein was resolved on a 4-12% SDS-PAGE gel, transferred to PVDF membranes (80V/90 minute by wet-transfer), and blocked with Oddysey TBS blocking buffer for 1 hour and then probed with appropriate primary antibodies overnight at 4° C. using dilution as recommended by manufacturer. Membranes were washed three times for a total of 30 minutes and then incubated with secondary antibodies at room temperature in the dark for 1 hour. After another three washes, Odyssey infrared imaging system and companion software (LI-COR biosciences, Lincoln, Nebr., USA) were used to scan immunoblot membranes and to quantify band intensity according to the manufacturer's instructions. The ratio of proteins of interest to loading control in treated samples was normalized to the corresponding ratio in untreated cells. Antibodies used for immunoblotting were purchased from the following sources: BCL-2 (sc-7382), MCL1-(sc-819) from Santa Cruz Biotechnology (Dallas, Tex., USA, Bim (2819), caspase-3 (9664) from Cell Signaling Technology; beta-Actin (A2228) from Sigma-Aldrich; DNMTI (ab188453) from AbCam; IRDye 680 goat anti-rabbit and IRDye 800 goat anti-mouse secondary antibodies (#925-68073 and #925-32212) were purchased from Li-COR Biosciences (Lincoln, Nebr.). […]

[1] = tested on: ATF3 and SCD mRNA in MV4-11 cells; test: Real-time PCR validation of ATF3 and SCD expression; assay type: cell-based; settings: for ATF3 expression: FIG. 14C; for SCD expression: 24 hours, FIG. 14D
Method: At this time, cells were recovered and RNA was extracted using Qiagen RNeasy kit according to manufacturer's instructions. Reverse transcription was performed using SuperScript VILO cDNA synthesis kit. Validated Taqman probes and Taqman Fast Advanced Master Mix was used with Viia 7 Real-Time PCR System (Invitrogen/ThermoFisher Scientific, Waltham, Mass.) to quantify transcripts of ATF3, SCD, and 18S mRNA.

MV4-11 xenograft model = test: Disseminated AML xenograft survival study; assay type: in vivo, mice; settings: 5-azacytidine LEED regimen 1 mg/kg qd×5×3, alone or with venetoclax or midostaurin 100 mg/kg qd×21; vehicle 29.5
Method: LEED models oral administration of AZA, while HELD models intravenous or subcutaneous administration of AZA.
The animals were fed ad libitum water (reverse osmosis, 1 ppm Cl), and NIH 31 Modified and Irradiated Lab Diet® consisting of 18.0% crude protein, 5.0% crude fat, and 5.0% crude fiber. […] (68-72° F.) and 40-60% humidity.
On each day of dosing, an appropriate amount of gilteritinib was dissolved in 0.5% methylcellulose in DI water to yield a dosing solution at 0.4 mg/mL. Each week, an appropriate amount of venetoclax was dissolved in 10% ethanol:30% PEG400:60% phosal 50 propylene glycol to yield a dosing solution at 10 mg/mL. […]
Animals were monitored individually for an endpoint of moribundity due to progression of the leukemia. […] The time to endpoint (TTE), in days, was recorded for each mouse that died of its disease or was euthanized due to extensive tumor progression. […] The median TTE value was calculated for each group. The median TTE of treated mice was expressed as a percentage of the median TTE of the control mice (% T/C), and the increase in life span (ILS) was calculated as: ILS=% T/C−100%, where T=median TTE treated, and C=median TTE control. […]
Animals were weighed daily on Days 1-5, then twice per week until the completion of the study. […] Group mean body weight loss also was monitored as per protocol. […] Survival was analyzed by the Kaplan-Meier method, based on TTE values.

MV4-11 cells = test: RNASeq analysis, differential expression and KEGG pathways; assay type: cell-based
Excerpt: After treatment, cells were recovered, washed once in PBS, and flash frozen as cell pellets. Cell pellets were sent to Canopy Biosciences for RNA extraction and library preparation and sequencing. RNA was extracted using the Qiagen RNeasy Mini Kit according to manufacturer's instructions. A modified protocol was used to preserve miRNA species. […] MCL1 RNA levels in other cell lines were quantified by RNASeq using standard methods.
Libraries were multiplexed and sequenced using Illumina HiSeq. All gene counts were then imported into the R/Bioconductor package EdgeR and TMM normalization size factors were calculated to adjust for samples for differences in library size. Ribosomal genes and genes not expressed in the smallest group size minus one samples greater than one count-per-million were excluded from further analysis. Differential expression analysis was then performed to analyze for differences between conditions and the results were filtered for only those genes with Benjamini-Hochberg false-discovery rate adjusted p-values less than or equal to 0.05. Global perturbations in known Gene Ontology (GO) terms and KEGG pathways were detected using the R/Bioconductor package GAGE to test for changes in expression of the reported log 2 fold-changes reported by Limma in each term versus the background log 2 fold-changes of all genes found outside the respective term. The R/Bioconductor package heatmap and Pathview was used to display heatmaps or annotated KEGG graphs across groups of samples for each GO term or KEGG pathway (respectively) with a Benjamini-Hochberg false-discovery rate adjusted p-value less than or equal to 0.05. To find differentially expressed genes, the raw counts were variance stabilized with the R/Bioconductor package DESeq2.

MCL-1 in THP-1 cells = test: Western blot of MCL-1 degradation; assay type: cell-based; settings: THP-1, by 24 hours
Method: (§1) Lysates were quantified using a bicinchoninic acid (BCA) kit (Piece/Thermo Fisher, Waltham, Mass.). 20 to 30 μg protein was resolved on a 4-12% SDS-PAGE gel, transferred to PVDF membranes (80V/90 minute by wet-transfer), and blocked with Oddysey TBS blocking buffer for 1 hour and then probed with appropriate primary antibodies overnight at 4° C. using dilution as recommended by manufacturer. Membranes were washed three times for a total of 30 minutes and then incubated with secondary antibodies at room temperature in the dark for 1 hour. After another three washes, Odyssey infrared imaging system and companion software (LI-COR biosciences, Lincoln, Nebr., USA) were used to scan immunoblot membranes and to quantify band intensity according to the manufacturer's instructions. The ratio of proteins of interest to loading control in treated samples was normalized to the corresponding ratio in untreated cells.

MCL-1 in KG1a cells = test: Western blot of MCL-1 degradation; assay type: cell-based; settings: FIG. 12A
Method: as §1

MCL-1 in OCI-AML2 cells = test: Western blot of MCL-1 degradation; assay type: cell-based; settings: OCI-AML2, FIG. 12D
Method: as §1

22 AML cell lines = test: Cell viability and 5-azacytidine-venetoclax synergy in AML cell line panel; assay type: cell-based; settings: venetoclax-resistant lines Kasumi-1, Kasumi-2 and NOMO-1
[2] = 1 μM 5-azacytidine vs PBS, 24 h

Row | SMILES | effect on MCL-1 degradation by 5-azacytidine (MCL-1 in MV4-11 cells) | ATF3 expression ([1]; 0.3 μM, 24 or 48 hours) | SCD expression ([1]; 3 μM) | ATF3 expression ([1]; 0.3, 1 or 3 μM, 24 and 48 hours) | SCD expression ([1]; low concentrations) | median survival (MV4-11 xenograft model) | Mean logFC, KEGG pathway Metabolic pathways (MV4-11 cells; [2]) | Mean logFC, KEGG pathway Taste transduction (MV4-11 cells; [2]) | ATF3 expression increase (MV4-11 cells; RNAseq, 48 hours after 5-azacytidine treatment) | extent of MCL-1 degradation (MCL-1 in THP-1 cells) | start of MCL-1 degradation after treatment (MCL-1 in KG1a cells) [h] | MCL-1 degradation (MCL-1 in OCI-AML2 cells) | effect of co-treatment on venetoclax resistance (22 AML cell lines)
1 | COC(=O)C[C@H](NC(=O)[C@H](C)NC(=O)[C@@H](NC(=O)OCc1ccccc1)C(C)C)C(=O)CF [Z-VAD-FMK] (Cbz-Val-Ala-Asp(OMe)-CH2F) | partially ablated | – | – | – | – | – | – | – | – | – | – | – | –
2 | Nc1ncn([C@@H]2O[C@H](CO)[C@@H](O)[C@H]2O)c(=O)n1 [5-azacytidine, 4-amino−1-B-D-ribofuranosyl-1,3,5-triazin-2(1H)-one] | – | not sufficient to induce ATF3 expression | decreased rapidly within 24 hours | increased in a time- and concentration-dependent manner | not affected | 35 | −5.29 | 2.44 | two-fold | incomplete degradation by 24 hours | 6 | did not lead to any degradation of MCL-1 | reversal of venetoclax resistance
